Data on twelve compounds can be found in PMC8476055, “Synthesis and Biological Activity of Triterpene–Coumarin Conjugates” (Journal of Natural Products, 2021).

Series [1] relates to Hep G2 human hepatocyte carcinoma cells. Briefly: MTT cell proliferation assay, Hep G2 cells. Format: cell-based. The following applies: HepG2, 72 h treatment, untreated control = 100% viability, read-out: IC50, growth inhibition of Hep G2 cells. The protocol: (§1) These studies were performed using a 3-(4,5-dimethylthiazol-2-yl)-2,5-diphenyltetrazolium bromide (MTT) assay, with increasing concentration levels of each compound (0–200 μg/mL). Cell viability was determined after treatment for 72 h, by absorption of a formazan dye.
(§2) […] ATTC HTB-38), Hep G2 human hepatocyte carcinoma cells (ECACC 85011430), nontumor human epithelial lung fibroblast cells HPF (ScienCell catalog (cat.) no. 3300), nontumor rat ileum cells IEC-18 (ECACC no. 88011801), and nontumor human embryo liver cells (ECACC 89121403) were cultured in DMEM medium supplemented with 2 mM glutamine, 10% heat-inactivated fetal bovine serum (FCS), 10.000 units/mL penicillin, and […]. These cells were incubated at 37 °C in an atmosphere of 5% CO2 and 95% humidity. The culture media were changed every 48 h, and the confluent cultures were separated with a trypsin solution (0.25% EDTA). Subconfluent monolayer cells were used in all experiments. All cell lines used were provided by the cell bank of the University of Granada (Spain).
(§3) The effect of the synthesized compounds on the viability of tumor cells was assessed using an MTT assay, based on the ability of living cells to cleave the tetrazolium ring, thus producing formazan, which absorbs at 570 nm. […] For an evaluation of the cytotoxic effects of these compounds, the cells were seeded in 96-well plates at an initial density of 5 × 10^3 B16–F10 cells, 6 × 10^3 HT29 cells, 15 × 10^3 Hep G2 cells, 8 × 10^3 HPF cells, 15 × 10^3 IEC-18 cells, and 11 × 10^3 WRL68 cells, per well. After incubation for 24 h, the cells were treated with the synthesized compounds in triplicate, at different concentrations (0–200 μg/mL), and incubated for 72 h. Thereafter, 100 μL of MTT solution (0.5 mg/mL) were added to each well. After 2 h of incubation, the cells were washed twice with phosphate buffered saline (PBS), and the formazan was resuspended in 100 μL of DMSO. Relative cell viability, with respect to untreated control cells, was measured by absorbance at 550 nm on an ELISA plate reader (Tecan Sunrise MR20-301, TECAN, Austria). […] These experiments were measured and compared to the control after 72 h of treatment.
Background: Tetrazolium assays rely on reduction of a dye to a coloured formazan, in cell work by metabolically active cells.

In series [2] the test system is B16-F10, HT29, and Hep G2 cancer cell lines. As to the kind of experiment: MTT assay, statements over the three cancer cell lines. Particulars: 72 h, read-out: IC50 (cytotoxicity), cell line not distinguished. Format: cell-based. As to the method: These studies were performed using a 3-(4,5-dimethylthiazol-2-yl)-2,5-diphenyltetrazolium bromide (MTT) assay, with increasing concentration levels of each compound (0–200 μg/mL). Cell viability was determined after treatment for 72 h, by absorption of a formazan dye. […] In these three cancer cell lines, the concentration of the compounds that reduced the response by half (IC50) was determined (Table 1).
The effect of the synthesized compounds on the viability of tumor cells was assessed using an MTT assay, based on the ability of living cells to cleave the tetrazolium ring, thus producing formazan, which absorbs at 570 nm. The MA conjugates (1–12) were assayed against the selected cancer cell lines. For an evaluation of the cytotoxic effects of these compounds, the cells were seeded in 96-well plates at an initial density of 5 × 10^3 B16–F10 cells, 6 × 10^3 HT29 cells, 15 × 10^3 Hep G2 cells, 8 × 10^3 HPF cells, 15 × 10^3 IEC-18 cells, and 11 × 10^3 WRL68 cells, per well. After incubation for 24 h, the cells were treated with the synthesized compounds in triplicate, at different concentrations (0–200 μg/mL), and incubated for 72 h. […] Relative cell viability, with respect to untreated control cells, was measured by absorbance at 550 nm on an ELISA plate reader (Tecan Sunrise MR20-301, TECAN, Austria). […] These experiments were measured and compared to the control after 72 h of treatment.

Series [3] concerns B16–F10 murine melanoma cells. Briefly: MTT cell proliferation assay, B16–F10 cells. Format: cell-based. The following applies: Mus musculus, 72 h treatment, untreated control = 100% viability, read-out: IC50, growth inhibition of B16–F10 cells. As to the method: as §1, §2, §3
The subject of series [4] is HT29 human colon adenocarcinoma cells. As to the kind of experiment: MTT cell proliferation assay, HT29 cells. Format: cell-based. Particulars: HT-29, 72 h treatment, untreated control = 100% viability, read-out: IC50, growth inhibition of HT29 cells. As to the method: as §1, §2, §3

Turning to `Cc1cc(=O)oc2cc(NC(=O)[C@]34CCC(C)(C)C[C@H]3C3=CC[C@@H]5[C@@]6(C)C[C@@H](O)[C@H](O)C(C)(C)[C@@H]6CC[C@@]5(C)[C@]3(C)CC4)ccc12` [Compound 11, 2α,3β-dihydroxy-N-(4-methyl-2-oxo-2H-chromen-7-yl)-olean-12-en-28-amide], the IC50 in series [1], in series [2], in series [3] and in series [4] was above 10 µM throughout.

On to `CC1(C)CC[C@]2(C(=O)NCCCCCCCCCCNC(=O)/C=C/c3ccc(O)cc3)CC[C@]3(C)C(=CC[C@@H]4[C@@]5(C)C[C@@H](O)[C@H](O)C(C)(C)[C@@H]5CC[C@]43C)[C@@H]2C1` [Compound 9, 2α,3β-Dihydroxy-N-(10′-((E)-3″-(4‴-hydroxyphenyl)acrylamido)decyl)olean-12-en-28-amide], for which the melting point (in general, the temperature, or range, at which the solid turns liquid) fell in the range of 104 to 106 °C. Besides, the IC50 (as a rule, the point on the concentration scale where inhibition reaches its midpoint) in series [1] is above 10 µM. Further, the IC50 in series [3] was above 10 µM. The IC50 in series [4] is above 10 µM.

For the compound `O=C(O)Cc1cc(=O)oc2cc(O)ccc12` [HCAA, 7-hydroxycoumarinyl-4-acetic acid, reference compound], the IC50 in series [1], in series [3] and in series [4] was above 10 µM each time.

In the case of `CC1(C)CC[C@]2(C(=O)NCCCCCCCCCCNC(=O)c3cc4ccccc4oc3=O)CC[C@]3(C)C(=CC[C@@H]4[C@@]5(C)C[C@@H](O)[C@H](O)C(C)(C)[C@@H]5CC[C@]43C)[C@@H]2C1` [Compound 3, 2α,3β-Dihydroxy-N-(10′-(2″-oxo-2″H-chromene-3″-carboxamido)decyl)olean-12-en-28-amide], the melting point lay within 86 to 88 °C. Moreover, the IC50 in series [1] is above 10 µM. In series [3], the IC50 is above 10 µM. Also, the IC50 in series [4] is above 10 µM.

As to `O=C(O)/C=C/c1ccc(O)cc1` [PCA, p-coumaric acid, reference compound], the IC50 in series [1], in series [3] and in series [4] was above 10 µM in each case.

`Cc1cc(=O)oc2cc(NC(=O)[C@]34CCC(C)(C)C[C@H]3C3=CC[C@@H]5[C@@]6(C)C[C@@H](OC(=O)c7cc8ccccc8oc7=O)[C@H](OC(=O)c7cc8ccccc8oc7=O)C(C)(C)[C@@H]6CC[C@@]5(C)[C@]3(C)CC4)ccc12` [Compound 12, N-(4‴-Methyl-2‴-oxo-2‴H-chromen-7‴-yl)-2α,3β-bis((2′-oxo-2′H-chromene-3′-carbonyl)oxy)-olean-12-en-28-amide]: the melting point lay within 206 to 208 °C. For the same compound, the 50% inhibitory concentration (IC50) in series [1] is above 10 µM. The IC50 in series [2] was above 10 µM. In addition, the IC50 in series [3] was above 10 µM. Besides, in series [4], the IC50 was above 10 µM.

The compound `CC1(C)CC[C@]2(C(=O)NCCCCCCNC(=O)/C=C/c3ccc(O)cc3)CC[C@]3(C)C(=CC[C@@H]4[C@@]5(C)C[C@@H](O)[C@H](O)C(C)(C)[C@@H]5CC[C@]43C)[C@@H]2C1` [Compound 8, 2α,3β-Dihydroxy-N-(6′-((E)-3″-(4‴-hydroxyphenyl)acrylamido)hexyl)olean-12-en-28-amide] displayed a melting point of 76 to 78 °C. For the same compound, the IC50 in series [1] was above 10 µM. In series [3], the IC50 was above 10 µM. Also, the IC50 in series [4] was above 10 µM.

The compound `CC1(C)CC[C@]2(C(=O)NCCCCCCCCCCNC(=O)Cc3cc(=O)oc4cc(O)ccc34)CC[C@]3(C)C(=CC[C@@H]4[C@@]5(C)C[C@@H](O)[C@H](O)C(C)(C)[C@@H]5CC[C@]43C)[C@@H]2C1` [Compound 6, 2α,3β-Dihydroxy-N-(10′-(2″-(7‴-hydroxy-2‴-oxo-2‴H-chromen-4‴-yl)acetamido)decyl)olean-12-en-28-amide] returned a melting point of 120 to 122 °C. Besides, the IC50 in series [1] was above 10 µM. For the same compound, the IC50 in series [3] is above 10 µM. Moreover, in series [4], the IC50 was above 10 µM.

On to `CC1(C)CC[C@]2(C(=O)O)CC[C@]3(C)C(=CC[C@@H]4[C@@]5(C)C[C@@H](O)[C@H](O)C(C)(C)[C@@H]5CC[C@]43C)[C@@H]2C1` [MA (I), 2α,3β-dihydroxyolean-12-en-28-oic acid, reference compound], for which the IC50 in series [1], in series [3] and in series [4] was above 10 µM throughout.

Consider `CC1(C)CC[C@]2(C(=O)NCCCCCCNC(=O)Cc3cc(=O)oc4cc(O)ccc34)CC[C@]3(C)C(=CC[C@@H]4[C@@]5(C)C[C@@H](O)[C@H](O)C(C)(C)[C@@H]5CC[C@]43C)[C@@H]2C1` [Compound 5, 2α,3β-Dihydroxy-N-(6′-(2″-(7‴-hydroxy-2‴-oxo-2‴H-chromen-4‴-yl)acetamido)hexyl)olean-12-en-28-amide], for which the melting point was in the range of 139 to 141 °C. Moreover, in series [1], the IC50 was above 10 µM. Further, the IC50 in series [3] was above 10 µM. For the same compound, in series [4], the IC50 was above 10 µM.

With `O=C(O)c1cc2ccccc2oc1=O` [C3CA, coumarin-3-carboxylic acid, reference compound], the IC50 in series [1], in series [3] and in series [4] was above 10 µM in each case.

`CC1(C)CC[C@]2(C(=O)NCCCCCCNC(=O)c3cc4ccccc4oc3=O)CC[C@]3(C)C(=CC[C@@H]4[C@@]5(C)C[C@@H](O)[C@H](O)C(C)(C)[C@@H]5CC[C@]43C)[C@@H]2C1` [Compound 2, 2α,3β-Dihydroxy-N-(6′-(2″-oxo-2″H-chromene-3″-carboxamido)hexyl)olean-12-en-28-amide] showed a melting point of 73 to 75 °C. Also, in series [1], the IC50 is above 10 µM. Moreover, the IC50 in series [3] was above 10 µM. In addition, the IC50 in series [4] was above 10 µM.
